Experimental data reported in the supplement of paper PMC5579334.

Tests used:
[1] = tested on: STS26T; test: relative IC50 (inflection point of fitted dose-response curve, CellTox-Green cytotoxicity, 72 h; top asymptote may be below 50%); higher = less potent
Method in brief: (§1)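 MPNST cell lines and primary human Schwann cells were incubated 72 h at 37 °C in 384-well plates holding five 10-fold compound dilutions. CellTox-Green was added before seeding at a final 1:1000 dilution and reported fluorescence from DNA released by disrupted cells. Signals were scaled to vehicle and positive-control wells, and cultures failing plate quality control were dropped. Drug sensitivity score and relative IC50 come from four-parameter logistic fits, with IC50 censored at the top concentration.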

[2] = tested on: HS-PSS; test: as above
Method in brief: as §1

[3] = tested on: HSC2; test: as above
Method in brief: as §1

[4] = tested on: HSC1; test: as above
Method in brief: as §1

[5] = tested on: ST8814; test: as above
Method in brief: as §1

[6] = tested on: STS26T; test: relative IC50 (inflection point of fitted dose-response curve, CellTiter-Glo viability, 72 h; top asymptote may be below 50% inhibition); higher = less potent
Method in brief: (§2)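 MPNST cell lines and primary human Schwann cells (750–1000 cells per well) went into 384-well plates preprinted with each compound at five concentrations in 10-fold steps. Plates were incubated 72 h at 37 °C, 5% CO2. Viability was read as CellTiter-Glo ATP luminescence, scaled between vehicle and positive-control wells, with duplicates averaged where present. Percent inhibition is at the top concentration; drug sensitivity score and relative IC50 (censored at top concentration) come from four-parameter logistic fits.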

[7] = tested on: S462; test: as above
Method in brief: as §2

[8] = tested on: HSC2; test: as above
Method in brief: as §2

[9] = tested on: S1507-2; test: as above
Method in brief: as §2

[10] = tested on: HSC1; test: as above
Method in brief: as §2

[11] = tested on: ST8814; test: as above
Method in brief: as §2

[12] = tested on: YST-1; test: as above
Method in brief: as §2

[13] = tested on: HS-Sch-2; test: as above
Method in brief: as §2

[14] = tested on: HS-PSS; test: as above
Method in brief: as §2

SMILES	relative IC50 [1]	relative IC50 [2]	relative IC50 [3]	relative IC50 [4]	relative IC50 [5]	relative IC50 [6]	relative IC50 [7]	relative IC50 [8]	relative IC50 [9]	relative IC50 [10]	relative IC50 [11]	relative IC50 [12]	relative IC50 [13]	relative IC50 [14]
CO[C@@]12[C@H](COC(N)=O)C3=C(C(=O)C(C)=C(N)C3=O)N1C[C@@H]1N[C@@H]12 [Mitomycin C]	2850 nM	> 10000 nM	1060 nM	2870 nM	3080 nM	3590 nM	3690 nM	3650 nM	3790 nM	3330 nM	3760 nM	2190 nM	3950 nM	–
O=C(CCCCCCC(=O)Nc1ccc([C@H]2O[C@@H](CSc3nc(-c4ccccc4)c(-c4ccccc4)o3)C[C@@H](c3ccc(CO)cc3)O2)cc1)NO [Tubacin]	3190 nM	–	> 10000 nM	> 10000 nM	3070 nM	3310 nM	3160 nM	2970 nM	3190 nM	3280 nM	2970 nM	2010 nM	2800 nM	1470 nM
CCn1c(-c2nonc2N)nc2cnc(Oc3cccc(NC(=O)c4ccc(OCCN5CCOCC5)cc4)c3)cc21	322 nM	> 10000 nM	–	2520 nM	> 10000 nM	775 nM	1490 nM	51.4 nM	1480 nM	64 nM	1930 nM	618 nM	988 nM	1610 nM
O=C(O)c1ccc(-c2c[nH]c3ncc(-c4ccccc4)cc23)cc1C1CCCC1	> 10000 nM	> 10000 nM	> 10000 nM	> 10000 nM	> 10000 nM	> 10000 nM	> 10000 nM	–	> 10000 nM	> 10000 nM	> 10000 nM	> 10000 nM	2980 nM	–
Cc1nc(Nc2ncc(C(=O)Nc3c(C)cccc3Cl)s2)cc(N2CCN(CCO)CC2)n1 [Dasatinib]	52 nM	> 1000 nM	> 1000 nM	> 1000 nM	29.4 nM	25.8 nM	41.3 nM	81.7 nM	53.8 nM	48.7 nM	43.9 nM	16.8 nM	84.9 nM	–
C/C(=C\c1csc(C)n1)[C@@H]1C[C@@H]2O[C@]2(C)CCC[C@H](C)[C@H](O)[C@@H](C)C(=O)C(C)(C)[C@@H](O)CC(=O)O1 [Patupilone]	1.03 nM	> 1000 nM	9.17 nM	12.1 nM	4.33 nM	1.03 nM	0.718 nM	2.45 nM	3.52 nM	0.929 nM	2.25 nM	0.72 nM	1.37 nM	0.89 nM
CC(C)c1c(C(=O)Nc2ccccc2)c(-c2ccccc2)c(-c2ccc(F)cc2)n1CC[C@@H](O)C[C@@H](O)CC(=O)O [Atorvastatin]	3510 nM	> 10000 nM	234 nM	368 nM	3270 nM	2090 nM	1280 nM	196 nM	2500 nM	319 nM	2450 nM	2320 nM	2210 nM	1680 nM
CC(C)C[C@H](NC(=O)[C@@H](COC(C)(C)C)NC(=O)[C@H](Cc1ccc(O)cc1)NC(=O)[C@H](CO)NC(=O)[C@H](Cc1c[nH]c2ccccc12)NC(=O)[C@H](Cc1cnc[nH]1)NC(=O)[C@@H]1CCC(=O)N1)C(=O)N[C@@H](CCCNC(=N)N)C(=O)N1CCC[C@H]1C(=O)NNC(N)=O [Goserelin]	> 10000 nM	> 10000 nM	> 10000 nM	> 10000 nM	> 10000 nM	> 10000 nM	> 10000 nM	> 10000 nM	> 10000 nM	> 10000 nM	> 10000 nM	> 10000 nM	–	> 10000 nM
Nc1ncnc2c1nc(Cl)n2[C@@H]1O[C@H](CO)[C@@H](O)[C@H]1O [8-chloro-adenosine]	2820 nM	> 50000 nM	> 50000 nM	> 50000 nM	–	2800 nM	1590 nM	3820 nM	1890 nM	3550 nM	1240 nM	2580 nM	2960 nM	6590 nM
CN(c1ccccc1CNc1nc(Nc2ccc3c(c2)CC(=O)N3)ncc1C(F)(F)F)S(C)(=O)=O	849 nM	–	–	–	–	1420 nM	1010 nM	326 nM	1250 nM	209 nM	1370 nM	1240 nM	2440 nM	2360 nM
CN(N=O)C(=O)N[C@@H]1[C@@H](O)[C@H](O)[C@@H](CO)O[C@@H]1O [Streptozocin]	> 10000 nM	> 10000 nM	> 10000 nM	> 10000 nM	> 10000 nM	> 10000 nM	> 10000 nM	> 10000 nM	> 10000 nM	> 10000 nM	–	–	–	–
C[C@]1(O)C[C@@H](c2nc(-c3ccc4ccc(-c5ccccc5)nc4c3)c3c(N)nccn32)C1 [Linsitinib]	> 10000 nM	> 10000 nM	> 10000 nM	> 10000 nM	> 10000 nM	–	101 nM	> 10000 nM	20.7 nM	3.91 nM	> 10000 nM	567 nM	770 nM	> 10000 nM
Cc1ccc([N+](=O)[O-])cc1S(=O)(=O)N(C)/N=C/c1cnc2ccc(Br)cn12 [PIK-75]	160 nM	–	330 nM	299 nM	567 nM	143 nM	186 nM	161 nM	275 nM	175 nM	212 nM	–	–	–
CN1CCc2c(c3ccccc3n2Cc2ccc(C(=O)NO)cc2)C1 [Tubastatin A]	2760 nM	> 10000 nM	> 10000 nM	> 10000 nM	> 10000 nM	2840 nM	3270 nM	–	2430 nM	3180 nM	3470 nM	1600 nM	3370 nM	3010 nM
COc1cc([C@@H]2c3cc4c(cc3[C@@H](O[C@@H]3O[C@@H]5CO[C@@H](C)O[C@H]5[C@H](O)[C@H]3O)[C@H]3COC(=O)[C@H]23)OCO4)cc(OC)c1O [Etoposide]	896 nM	–	1420 nM	3130 nM	3230 nM	1210 nM	833 nM	241 nM	1490 nM	658 nM	1930 nM	175 nM	1120 nM	1300 nM
Cn1cnc2c(F)c(Nc3ccc(Br)cc3Cl)c(C(=O)NOCCO)cc21 [Selumetinib]	> 10000 nM	> 10000 nM	> 10000 nM	> 10000 nM	–	240 nM	736 nM	1710 nM	301 nM	2600 nM	727 nM	> 10000 nM	2030 nM	–
O=C(O)CCCCC(CCSCc1ccccc1)SCc1ccccc1 (stereo unspecified) [CPI-613]	> 10000 nM	> 10000 nM	> 10000 nM	> 10000 nM	> 10000 nM	> 10000 nM	> 10000 nM	> 10000 nM	> 10000 nM	> 10000 nM	> 10000 nM	–	> 10000 nM	–
O=NN(CCCl)C(=O)NCCCl [Carmustine]	> 10000 nM	> 10000 nM	> 10000 nM	> 10000 nM	> 10000 nM	> 10000 nM	> 10000 nM	> 10000 nM	> 10000 nM	> 10000 nM	> 10000 nM	> 10000 nM	> 10000 nM	–
Nc1ncn([C@@H]2O[C@H](CO)[C@@H](O)[C@H]2O)c(=O)n1 [Azacitidine]	> 10000 nM	> 10000 nM	> 10000 nM	> 10000 nM	> 10000 nM	3840 nM	2580 nM	3320 nM	> 10000 nM	2340 nM	–	–	–	–
CC1(C)CNc2cc(NC(=O)c3cccnc3NCc3ccncc3)ccc21 [Motesanib]	> 10000 nM	> 10000 nM	> 10000 nM	> 10000 nM	> 10000 nM	> 10000 nM	> 10000 nM	–	> 10000 nM	> 10000 nM	> 10000 nM	–	> 10000 nM	> 10000 nM
CC(=O)N(O)CCCCCNC(=O)CCC(=O)N(O)CCCCCNC(=O)CCC(=O)N(O)CCCCCN [Deferoxamine aq]	> 10000 nM	–	> 10000 nM	> 10000 nM	3040 nM	1420 nM	1630 nM	771 nM	931 nM	1470 nM	1300 nM	–	–	–
Cc1c(CN2CCN(C(=O)[C@H](C)O)CC2)sc2c(N3CCOCC3)nc(-c3cnc(N)nc3)nc12 [GDC-0980]	> 10000 nM	–	> 10000 nM	> 10000 nM	2880 nM	486 nM	617 nM	469 nM	447 nM	636 nM	1060 nM	–	–	–
O=S(=O)(c1cccc2cnccc12)N1CCCNCC1 [Fasudil]	20200 nM	–	> 50000 nM	> 50000 nM	> 50000 nM	17600 nM	16100 nM	16600 nM	19700 nM	13000 nM	–	16500 nM	16700 nM	19800 nM
Clc1ccc(C(c2ccccc2Cl)C(Cl)Cl)cc1 (stereo unspecified) [Mitotane]	> 10000 nM	> 10000 nM	> 10000 nM	> 10000 nM	> 10000 nM	> 10000 nM	> 10000 nM	> 10000 nM	> 10000 nM	> 10000 nM	–	> 10000 nM	> 10000 nM	> 10000 nM
CC(C)(C)NC(=O)[C@H]1CC[C@H]2[C@@H]3CC[C@H]4NC(=O)C=C[C@]4(C)[C@H]3CC[C@]12C [Finasteride]	> 10000 nM	> 10000 nM	> 10000 nM	> 10000 nM	> 10000 nM	–	> 10000 nM	> 10000 nM	> 10000 nM	> 10000 nM	> 10000 nM	> 10000 nM	> 10000 nM	> 10000 nM
COc1cc2nccc(Oc3ccc(NC(=O)Nc4cc(C)on4)c(Cl)c3)c2cc1OC [Tivozanib]	1890 nM	> 10000 nM	> 10000 nM	–	1900 nM	1870 nM	828 nM	1790 nM	18.9 nM	1710 nM	> 10000 nM	2260 nM	3870 nM	3730 nM
CO[C@H]1C[C@@H]2CC[C@@H](C)[C@@](O)(O2)C(=O)C(=O)N2CCCC[C@H]2C(=O)O[C@H]([C@H](C)C[C@@H]2CC[C@@H](OCCO)[C@H](OC)C2)CC(=O)[C@H](C)/C=C(\C)[C@@H](O)[C@@H](OC)C(=O)[C@H](C)C[C@H](C)/C=C/C=C/C=C/1C [Everolimus]	> 100 nM	> 100 nM	> 100 nM	> 100 nM	> 100 nM	0.14 nM	0.537 nM	0.239 nM	1.46 nM	0.12 nM	0.32 nM	5.94 nM	–	–
COc1cc2c(Oc3ccc(NC(=O)C4(C(=O)Nc5ccc(F)cc5)CC4)cc3F)ccnc2cc1OCCCN1CCOCC1 [Foretinib]	311 nM	–	> 1000 nM	> 1000 nM	288 nM	209 nM	257 nM	256 nM	138 nM	238 nM	142 nM	275 nM	378 nM	–
